{
  "source": "paper PMC9530166",
  "about": "“Allosteric regulation of glycogen breakdown by the second messenger cyclic di-GMP” (Nature Communications, 2022)",
  "key": {"His6-GlgXD342A+E378A": {"test_system": "His6-GlgXD342A+E378A", "test": "BCA reducing-end enzyme assay, GlgXD342A+E378A", "type": "biochemical, Streptomyces venezuelae", "conditions": "50 µM c-di-GMP, 0.05% glycogen from rabbit, 1 µM enzyme", "description": "Fig. 2 c-di-GMP stimulates glycogen breakdown activity of GlgX in vitro. a Bicinchoninic acid (BCA) in vitro enzyme assay. The purple copper bicinchoninate complex indicating GlgX-mediated generation of reducing ends in glycogen was quantified by photometric measurements at 562 nm. A562 values were converted into reducing ends [µM glucose equivalents] based on D-glucose as a standard. Reactions contained 0.05% (w/v) glycogen from rabbit, 1 µM GlgX and increasing concentrations of c-di-GMP (0–100 µM). Source data are provided as a Source data file. b BCA assay containing 0.05% of either glycogen from rabbit, pullulan, amylopectin from maize or amylose from potato as substrates. Where appropriate, 1 µM GlgX or 50 µM c-di-GMP were added to the reaction samples. Source data are provided as a Source data file. c BCA assay as in a with or without c-di-GMP (50 µM), 0.05% glycogen from rabbit (S) and 1 µM Vnz25270, GlgX, the active site mutants GlgXD342A, GlgXE378A, GlgXD342A+E378A, or the c-di-GMP-binding mutant variant GlgXDETR49-52 as indicated. […]\nHydrolysis of carbohydrates was assessed in vitro by measuring the accumulation of reducing sugar ends using the BCA assay[42] and D-glucose as a standard for calibration (Supplementary Fig. 11). […] 125 μl sample aliquots were transferred in duplicates to a 96 well plate and the absorbance at 562 nm was measured using a plate reader."}, "GlgXR438A-R579A": {"test_system": "GlgXR438A-R579A", "test": "Fluorescence polarization binding, GlgXR438A-R579A", "parameters": "species or system Streptomyces venezuelae", "source_text": "Fig. 5 Structure of the S. venezuelae GlgX-c-di-GMP complex. a Ribbon diagram of the S. venezuelae GlgX-c-di-GMP complex with one GlgX subunit colored cyan and the other salmon. Shown as sticks are the c-di-GMP molecules bound at each end of the antiparallel dimer. […] There was clear density for each c-di-GMP molecule. b Close up of the GlgX-c-di-GMP binding interaction. Key residues mediating contacts to the c-di-GMP are shown as sticks and labeled. Hydrogen bonds from GlgX residues that specify binding to the guanine are indicated by yellow dashed lines. c Fluorescence polarization (FP) binding isotherm showing interaction of GlgX, GlgXE47A-R49A and GlgXR438A-R579A for F-c-di-GMP in red, green and blue respectively. Also shown is the binding isotherm for GlgX binding to F-c-di-AMP in black. […] The y-axis and x-axis are millipolarization (mP) units and GlgX concentration (μM), respectively. Shown are representative binding curves for each. The experiments were performed in technical triplicates and the error between measurements reported. […]\nThus, we used this F-tagged c-di-GMP in fluorescence polarization (FP) studies to quantify the interaction between GlgX and c-di-GMP. […] To ensure that the presence of the fluorescent tag was not impacting the GlgX interaction with c-di-GMP we used microscale thermophoresis (MST) to quantify c-di-GMP binding to GlgX. […]"}},
  "data": [
    {"smiles": "Nc1nc2c(ncn2[C@@H]2O[C@@H]3CO[P@](=O)(O)O[C@H]4[C@@H](O)[C@H](n5cnc6c(=O)[nH]c(N)nc65)O[C@@H]4CO[P@](=O)(O)O[C@H]3[C@H]2O)c(=O)[nH]1", "note": "[c-di-GMP, bis-(3′−5′)-cyclic diguanosine monophosphate]", "values": [
      {"measurement": "stimulation of enzyme activity by c-di-GMP", "setting": "His6-GlgXD342A+E378A", "result": "could not be stimulated"},
      {"measurement": "binding to mutant in FP", "setting": "GlgXR438A-R579A", "result": "weak, nonsaturable binding"}
    ]}
  ]
}
